From paper PMC11843613, “Further Optimization of the mGlu1 PAM VU6024578/BI02982816: Discovery and Characterization of VU6033685” (ACS Chemical Neuroscience, 2025)
pIC50: −log10 of the molar value.

Key:
CYP450 2D6 = biological target: T1, CYP450 2D6 (Homo sapiens, UniProt P10635); test: Inhibition of cytochrome P450 enzymes in human liver microsomes, 2D6; type: in vitro ADME
T1 construct: 0.1 mg/mL human liver microsomes (HLM); from tissue; host or cells: human liver microsomes
Method: Inhibition of Cytochrome P450 Enzymes: A cocktail of substrates for cytochrome P450 enzymes (1A2: Phenacetin, 10 µM; 2C9: Diclofenac, 5 µM; 2D6: Dextromethorphan, 5 µM; 3A4:
Midazolam, 2 µM) were mixed for cocktail analysis. For P450 2C19, the substrate stock (Mephenytoin, 40 µM )and substrate mix were prepared separately for discrete analysis. The […]
positive control for pan-P450 inhibition (miconazole) was included alongside each test compound […]
A reaction mixture of 100 mM Kpi, pH 7.4, 0.1 mg/mL human liver microsomes (HLM) and Substrate Mix is prepared and aliquoted into a 96-deepwell block. Test compound and positive control (in duplicate) were then added such that the final concentration of test compound ranged from 0.1 – 30 µM. The plate was vortexed briefly and then pre-incubated at 37 °C while shaking for 15 minutes. The reaction was initiated with the addition of NADPH (1 mM final concentration). The incubation continued for 8 min and the reaction quenched by 2x volume of cold acetonitrile containing internal standard (50 nM carbamazepine). The plate was centrifuged for 10 minutes (4000 rcf, 4°C) and the resulting supernatant diluted 1:1 with water for LC/MS/MS analysis. A 12 point standard curve of substrate metabolites over the range of 0.98 nM to 2000 […]
Samples were analyzed via electrospray ionization (ESI) on an AB Sciex API-4000 (Foster City, CA) triple-quadrupole instrument that was coupled with Shimadzu LC-10AD pumps (Columbia, MD) and a Leap Technologies CTC PAL auto-sampler (Carrboro, NC). Analytes were separated by gradient elution using a Fortis C18 3.0 x 50 mm, 3 µm column (Fortis Technologies Ltd, Cheshire, UK) thermostated at 40°C. HPLC mobile phase A was 0.1% formic acid in water (pH unadjusted), mobile phase B was 0.1% formic acid in acetonitrile (pH unadjusted). The gradient […]
90% B for 0.1 min and returned to 10% B in 0.1 min followed by a re-equilibration (0.9 min). The total run time was 2.5 min and the HPLC flow rate was 0.5 mL/min. The source temperature was set at 500°C and mass spectral analyses were performed using multiple reaction monitoring (MRM), with transitions specific for each compound utilizing a Turbo-Ionspray® source in positive ionization mode (5.0 kV spray voltage).
The IC50 values for each compound were obtained for the individual CYP enzymes by quantitating the inhibition of metabolite formation for each probe substrate. A 0 µM compound condition (or control) was set to 100% enzymatic activity and the effect of increasing test compound concentrations on enzymatic activity could then be calculated from the % of control activity.
Curves were fitted using XLfit 5.2.2 (four-parameter logistic model, equation 201) to determine the concentration that produces half-maximal inhibition (IC50).

[1] = Predicted hepatic clearance from hepatic microsomes (rat); type: in vitro ADME
Method: Intrinsic clearance: Human or rat hepatic microsomes (0.5 mg/mL) and 1 µM test compound were incubated in 100 mM potassium phosphate pH 7.4 buffer with 3 mM MgCl2 at 37°C with constant shaking.
After a 5 min preincubation, the reaction was initiated by addition of NADPH (1 mM). At selected time intervals (0, 3, 7, 15, 25, and 45 min), aliquots were taken and subsequently placed into a 96-well plate containing cold acetonitrile with internal standard (50 ng/mL carbamazepine). Plates were then centrifuged at 3000 rcf (4° C) for 10 min, and the supernatant was transferred to a separate 96-well plate and diluted 1:1 with water for LC/MS/MS analysis. The in vitro half-life (T 1/2, min, Eq. 1), intrinsic clearance (CLint, mL/min/kg, Eq. 2) and subsequent predicted hepatic clearance (CLhep, mL/min/kg, Eq. 3) was determined […]
employing the following equations: […]
where k represents the slope from linear regression analysis of the natural log percent remaining of test compound as a function of incubation time
0.693 mL incubation 45 mg microsomes 20a gram liver
(2) CLint = in vitroT x mg microsomes x gram liver x kg body wt […]
ascale-up factors: of 20 (human) or 45 (rat) […]
where Qh (hepatic blood flow, mL/min/kg) is 21 (human) or 70 (rat).
LC/MS/MS Bioanalysis of Samples from Plasma Protein Binding and Intrinsic Clearance Assays. Samples were analyzed on a Thermo Electron TSQ Quantum Ultra triple quad mass spectrometer (San Jose, CA) via electrospray ionization (ESI) with two Themo Electron Accella pumps (San Jose, CA), and a Leap Technologies CTC PAL autosampler (Carrboro, NC). Analytes were separated by gradient elution on a dual column system with two Thermo Hypersil Gold (2.1 x 30 mm, 1.9 µm) columns (San Jose, CA) thermostated at 40°C. HPLC mobile phase A was 0.1% formic acid in water and mobile phase B was 0.1% formic acid in acetonitrile. The gradient […]
95% B for 0.2 min; returned to 10% B in 0.1 min. The total run time was 1.3 min and the HPLC flow rate was 0.8 mL/min. While pump 1 ran the gradient method, pump 2 equilibrated the alternate column isocratically at 10% B. Compound optimization, data collection and […]

T1 sequence (P10635 whole entry): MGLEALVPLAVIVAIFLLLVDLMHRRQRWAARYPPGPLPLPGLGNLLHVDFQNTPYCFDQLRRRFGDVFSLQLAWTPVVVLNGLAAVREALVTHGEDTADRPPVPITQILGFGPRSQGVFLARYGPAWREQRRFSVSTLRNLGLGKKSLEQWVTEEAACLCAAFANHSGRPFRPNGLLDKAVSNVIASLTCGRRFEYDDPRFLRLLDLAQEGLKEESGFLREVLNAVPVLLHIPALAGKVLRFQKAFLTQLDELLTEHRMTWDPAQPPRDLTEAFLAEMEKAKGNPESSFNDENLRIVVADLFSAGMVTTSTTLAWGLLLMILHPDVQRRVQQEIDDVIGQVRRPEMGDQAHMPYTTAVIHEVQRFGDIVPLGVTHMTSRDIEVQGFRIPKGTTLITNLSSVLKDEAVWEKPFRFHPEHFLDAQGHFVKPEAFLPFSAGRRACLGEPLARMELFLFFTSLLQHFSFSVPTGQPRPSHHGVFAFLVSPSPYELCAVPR

Row | SMILES | pIC50 (CYP450 2D6) | Predicted CLhep (r) [1]
1 | Cn1cc(-c2cc(CNC(=O)c3cc(-c4ccco4)ccc3Cl)n(C)n2)cn1 [compound 4] | < 4.52 | 34.2 mL/min/kg
2 | Cn1nc(-c2ccnn2C)cc1CNC(=O)c1cc(-n2cccn2)ccc1Cl [compound 5] | < 4.52 | 21.4 mL/min/kg
3 | Cc1nc2ccccc2cc1CNC(=O)c1cc(-n2cccn2)ccc1Cl [compound 6] | 5.16 | 47.8 mL/min/kg
4 | Cc1nc2c(F)cccc2cc1CNC(=O)c1cc(-n2cccn2)ccc1Cl [compound 7] | < 4.52 | 46.8 mL/min/kg
5 | Cc1nc(C2CC2)ccc1CNC(=O)c1cc(-n2cccn2)ccc1Cl [compound 8] | < 4.52 | 46.7 mL/min/kg
